Results published in patent US20230364074A1, “Compounds and Compositions for Disrupting Programmed Ribosomal Frameshifting” (YALE UNIVERSITY, priority 2020, published 2023).
Counter-ions that a name gives are not always drawn. Like-named read-outs stand apart in the source and are kept apart here.

Tests used:
SARS-CoV-2 FSE (−1 PRF) = assay: cells; format: cell-based
HEK293T cells = assay: Cell viability in the high-throughput screen (cell nuclei numbers)
Protocol: HEK293T cells were plated in 384 well plates at the density of 5,000 cells/well. Cells were treated by 10 μM candidate compounds 30 min before transfection of 15 ng mCherry-FSE-GFP(−1) plasmid DNA in each well. 24 hours after transfection, cell nuclei were stained with Hoechst dye. Cell nuclei, mCherry, and GFP signals were imaged using an automated fluorescent microscope with a 10x objective, and the acquired images were quantified using the CellProfiler image analysis package. Cell nuclei numbers were quantified as the metric for cell viability. Mean GFP and RFP intensity values were measured in all transfected cells, and GFP/mCherry mean intensity ratios were quantified as the metric for PRF efficiency. The mCherry-GFP fusion plasmid and the mCherry-FSE-GFP(0) plasmid were used as positive and negative controls for elevated and reduced GFP/mCherry ratios, respectively.

[1] = Severe acute respiratory syndrome coronavirus 2, HEK-293T, 24 h; read-out: PERCENT EFFECT 2 (Decreased GFP/Red ratio)
[2] = Severe acute respiratory syndrome coronavirus 2, HEK-293T, 24 h; read-out: PERCENT EFFECT (Increased GFP/Red Ratio)
[3] = 10 μM compound, cell nuclei numbers
[4] = Severe acute respiratory syndrome coronavirus 2, HEK-293T, 24 h, read-out: PERCENT EFFECT 2 (Decreased GFP/Red ratio)
[5] = Severe acute respiratory syndrome coronavirus 2, HEK-293T, 24 h, read-out: PERCENT EFFECT (Increased GFP/Red Ratio)

Row | Compound | inhibition at 10 µM (SARS-CoV-2 FSE (−1 PRF); [1]) [%] | activation at 10 µM (SARS-CoV-2 FSE (−1 PRF); [2]) [%] | PERCENT VIABILITY (HEK293T cells; [3]) [%] | other results
1 | CC(=O)[C@]1(O)Cc2c(O)c3c(c(O)c2[C@@H](O[C@H]2C[C@H](N)[C@H](O)[C@H](C)O2)C1)C(=O)c1ccccc1C3=O [idarubicin] | 76.8 | -40.6 | 10.75 | 
2 | Nc1c2c(nc3ccccc13)CCCC2 [TACRINE HYDROCHLORIDE] |  |  |  | inhibition at 10 µM (SARS-CoV-2 FSE (−1 PRF); [4]): 97.1%; activation at 10 µM (SARS-CoV-2 FSE (−1 PRF); [5]): -50.2%; PERCENT VIABILITY (HEK293T cells; human): 148.9%
3 | COc1cccc2c1C(=O)c1c(O)c3c(c(O)c1C2=O)C[C@@](O)(C(=O)CO)C[C@@H]3O[C@H]1C[C@H](N)[C@@H](O)[C@H](C)O1 [EPIRUBICIN HYDROCHLORIDE] | 105 | -56.4 | 46.3 | 
4 | O=C1OC2(c3ccccc31)c1cc(I)c(O)c(I)c1Oc1c2cc(I)c(O)c1I [ERYTHROSINE SODIUM] | 105 | -56.3 | 100.7 | 
5 | CCN(CCO)CCCC(C)Nc1ccnc2cc(Cl)ccc12 (centres unmarked) [HYDROXYCHLOROQUINE SULFATE] | -34.5 | 18.9 | 346.2 | 
6 | NCCCNc1ccc2c3c(nn2CCNCCO)-c2c(O)ccc(O)c2C(=O)c13 [piroxantrone, 5-(AMINO-PR-AMINO)-DI-HO-2-(2-(HO-ET-AMINO)-ET)-2H-DIBENZO(CD,G)INDAZOL-ONE] | 88.7 | -43.5 | 91.45 | 
7 | O=[N+]([O-])c1cc(Cl)cc(-c2cc(Cl)cc([N+](=O)[O-])c2O)c1O [niclofolan, 4-chloro-2-(5-chloro-2-hydroxy-3-nitrophenyl)-6-nitrophenol] | -36.6 | 17.2 | 68.0 | 
8 | Cc1cc(/C=C/c2ccc3cc(N(C)C)ccc3[n+]2C)c(C)n1-c1ccccc1 [PYRVINIUM PAMOATE] |  |  | 15.1 | 
9 | C[C@H]1O[C@@H](n2cc(F)c(=O)[nH]c2=O)[C@H](O)[C@@H]1O [DOXIFLURIDINE] | -31.7 | 17.1 | 382.9 | 
10 | Cc1cc(-c2ccc(/N=N/c3ccc4c(S(=O)(=O)O)cc(S(=O)(=O)O)c(N)c4c3O)c(C)c2)ccc1/N=N/c1ccc2c(S(=O)(=O)O)cc(S(=O)(=O)O)c(N)c2c1O [EVANS BLUE] | 31.2 | -13.6 | 159.7 | 
11 | COc1ccc(C[C@H](N)C(=O)NC2[C@@H](O)[C@H](n3cnc4c(N(C)C)ncnc43)O[C@@H]2CO)cc1 (stereo partly drawn) [puromycin, (2S)-2-amino-N-[(2S,4R,5R)-5-(6-dimethylaminopurin-9-yl)-4-hydroxy-2-(hydroxymethyl)oxolan-3-yl]-3-(4-methoxyphenyl)propanamide] |  | 18.9 | 26.1 | PERCENT VIABILITY (HEK293T cells; 10 μM compound, cell nuclei numbers, listed as Puromycin): 49.7%
12 | GRAMICIDIN [GRAMICIDIN (gramicidin A shown)] |  |  | 3.3 | PERCENT EFFECT 2 (Decreased GFP/Red ratio) (SARS-CoV-2 FSE (−1 PRF)): −29.0%; PERCENT EFFECT (Increased GFP/Red Ratio) (SARS-CoV-2 FSE (−1 PRF)): 15.0%; PERCENT EFFECT 2 (Decreased GFP/Red ratio) (SARS-CoV-2 FSE (−1 PRF); listed as gramicidin): −38.6%; PERCENT EFFECT (Increased GFP/Red Ratio) (SARS-CoV-2 FSE (−1 PRF); listed as gramicidin): 18.9%; PERCENT VIABILITY (HEK293T cells; 10 μM compound, cell nuclei numbers, listed as gramicidin): 10.1%
13 | C[C@@H]1O[C@@H](O[C@@H]2C=C3CC[C@@H]4[C@H](CC[C@]5(C)[C@@H](c6ccc(=O)oc6)CC[C@]45O)[C@@]3(C)CC2)[C@H](O)[C@H](O)[C@H]1O [PROSCILLARIDIN] | -37.8 | 16.5 | 3.4 | 
14 | O=P(O)(O)OC1[C@H](OP(=O)(O)O)[C@H](O)C(O)[C@H](O)[C@H]1OP(=O)(O)O (stereo partly drawn) [atrinositol, [(2R,3S,5R,6R)-3,4,5-trihydroxy-2,6-diphosphonooxycyclohexyl] dihydrogen phosphate] | -61.7 | 30.2 |  | PERCENT VIABILITY (HEK293T cells; human): 199.8%
15 | CCN(CC)CCCC(C)Nc1c2ccc(Cl)cc2nc2ccc(OC)cc12 (centres unmarked) [QUINACRINE HYDROCHLORIDE] | -40.8 | 21.1 | 147.8 | 
16 | CCOC(=O)OC(C)OC1=C(C(=O)Nc2ccccn2)N(C)S(=O)(=O)c2ccccc21 (centres unmarked) [AMPIROXICAM] | -57.1 | 30.8 | 284.3 | 

Row | Compound | inhibition at 10 µM (SARS-CoV-2 FSE (−1 PRF); [1]) [%] | activation at 10 µM (SARS-CoV-2 FSE (−1 PRF); [2]) [%] | PERCENT VIABILITY (HEK293T cells; [3]) [%] | other results
17 | O=C([O-])c1ccccc1-c1c2cc(Br)c(=O)cc-2oc2[c]([Hg+])c([O-])c(Br)cc12.[Na+].[Na+].[OH-] [MERBROMIN] |  |  | 167.4 | PERCENT EFFECT 2 (Decreased GFP/Red ratio) (SARS-CoV-2 FSE (−1 PRF)): 53.1%; PERCENT EFFECT (Increased GFP/Red Ratio) (SARS-CoV-2 FSE (−1 PRF)): −23.1%
18 | CC[C@@]1(O)C[C@H](OC2CC(N(C)C)C(OC3CC(O)C(OC4CCC(=O)C(C)O4)C(C)O3)C(C)O2)c2c(cc3c(c2O)C(=O)c2c(O)cccc2C3=O)[C@H]1C(=O)OC (stereo partly drawn) [aclarubicin, methyl (1R,2R,4S)-4-[4-dimethylamino-5-[4-hydroxy-6-methyl-5-(6-methyl-5-oxooxan-2-yl)oxyoxan-2-yl]oxy-6-methyloxan-2-yl]oxy-2-ethyl-2,5,7-trihydroxy-6,11-dioxo-3,4-dihydro-1H-tetracene-1-carboxylate] | 33.3 |  | 52.5 | PERCENT VIABILITY (HEK293T cells; 10 μM compound, cell nuclei numbers, listed as Aclarubicin): 54.77%
19 | Clc1ccc(C(Cn2ccnc2)OCc2ccsc2Cl)c(Cl)c1 (centres unmarked) [tioconazole] |  |  |  | inhibition at 10 µM (SARS-CoV-2 FSE (−1 PRF); [4]): -51.1%; activation at 10 µM (SARS-CoV-2 FSE (−1 PRF); [5]): 26.7%; PERCENT VIABILITY (HEK293T cells; human): 99.7%
20 | O=C(Nc1ccc(Cl)cc1)Nc1ccc(Cl)c(C(F)(F)F)c1 [halocarban, 3-(4-chlorophenyl)-1-[4-chloro-3-(trifluoromethyl)phenyl]urea] | -48.8 | 23.9 | 54.7 | 
21 | Cc1cc2nc3c(=O)[nH]c(=O)nc-3n(CC(O)C(O)C(O)CO)c2cc1C (centres unmarked) [riboflavin, 7,8-dimethyl-10-(2,3,4,5-tetrahydroxypentyl)benzo[g]pteridine-2,4-dione] | -40 | 19.6 | 187.1 | 
22 | O=C(CCCCCCC(=O)Nc1ccccc1)NO [vorinostat] | -28.8 | 15.2 | 20.6 | 
23 | COc1cccc2c1C(=O)c1c(O)c3c(c(O)c1C2=O)C[C@@](O)(C(=O)CO)C[C@@H]3O[C@H]1C[C@H](N)[C@H](O)[C@H](C)O1 [DOXORUBICIN] | 101 | -54.1 | 13.3 | 
24 | COc1cccc2c1C(=O)c1c(O)c3c(c(O)c1C2=O)C[C@@](O)(C(C)=NNC(=O)c1ccccc1)C[C@@H]3O[C@H]1C[C@H](N)[C@H](O)[C@H](C)O1.Cl [zorubicin, N-[1-[(2S,4S)-4-[(2R,4S,5S,6S)-4-amino-5-hydroxy-6-methyloxan-2-yl]oxy-2,5,12-trihydroxy-7-methoxy-6,11-dioxo-3,4-dihydro-1H-tetracen-2-yl]ethylideneamino]benzamide hydrochloride] |  |  |  | inhibition at 10 µM (SARS-CoV-2 FSE (−1 PRF); [4]): 106%
25 | CCCC1(CCC)CCC2(CCN(CCCN(CC)CC)C2)CC1 [atiprimod, 3-(8,8-dipropyl-3-azaspiro[4.5]decan-3-yl)-N,N-diethylpropan-1-amine] | -40.9 | 21.2 | 7.2 | 
26 | CC(=O)[C@]1(N)Cc2c(O)c3c(c(O)c2[C@@H](O[C@H]2C[C@H](O)[C@H](O)CO2)C1)C(=O)c1ccccc1C3=O.Cl [amrubicin, (7S,9S)-9-acetyl-9-amino-7-[(2S,4S,5R)-4,5-dihydroxyoxan-2-yl]oxy-6,11-dihydroxy-8,10-dihydro-7H-tetracene-5,12-dione hydrochloride] |  |  |  | inhibition at 10 µM (SARS-CoV-2 FSE (−1 PRF); [4]): 50.5%; activation at 10 µM (SARS-CoV-2 FSE (−1 PRF); [5]): -23.7%; PERCENT VIABILITY (HEK293T cells; human): 111.0%
27 | O=C(Nc1cccc(C(F)(F)F)c1)c1ccccc1O [salfluverine, 2-hydroxy-N-[3-(trifluoromethyl)phenyl]benzamide] | -40.2 | 18.9 | 133.5 | 
28 | CCN(CC)CCNC(=O)c1cc(Br)c(N)cc1OC [BROMOPRIDE] | 65.7 | -35.5 | 113.8 | 
29 | CCN1/C(=C/C=C/C=C/c2sc3ccccc3[n+]2CC)Sc2ccccc21.[I-] [dithiazanine, 3-ethyl-2-[(1Z,3E,5E)-5-(3-ethyl-1,3-benzothiazol-2-ylidene)penta-1,3-dienyl]-1,3-benzothiazol-3-ium iodide] | 79.7 | -39 | 48.28 | 
30 | CC[C@]1(O)C[C@@H]2CN(CCc3c([nH]c4ccccc34)[C@@](C(=O)OC)(c3cc4c(cc3OC)N(C)[C@H]3[C@@](O)(C(N)=O)[C@H](O)[C@]5(CC)C=CCN6CC[C@]43[C@@H]65)C2)C1 [Vindesine Sulfate] |  | 16.8 | 26.1 | PERCENT VIABILITY (HEK293T cells; 10 μM compound, cell nuclei numbers, listed as Vindesine sulfate): 21.3%
31 | CN(C)c1ccc(C(=C2C=CC(=[N+](C)C)C=C2)c2ccc(N(C)C)cc2)cc1 [GENTIAN VIOLET] | 66.6 | -34.5 | 12.5 | 
32 | COc1cccc2c1C(=O)c1c(O)c3c(c(O)c1C2=O)C[C@@](O)(C(C)=O)C[C@@H]3O[C@H]1C[C@H](N)[C@H](O)[C@H](C)O1 [DAUNORUBICIN] | 108 |  | 15.3 | PERCENT VIABILITY (HEK293T cells; 10 μM compound, cell nuclei numbers, listed as daunorubicin): 16.18%
